Assay [1] has as its system Staphylococcus aureus. Briefly: Antibacterial activity against Staphylococcus aureus ATCC 29213. It counts as functional.
In assay [2] the test system is Staphylococcus aureus. Briefly: Antibacterial activity against Staphylococcus aureus D83N. In kind it is functional.
Assay [3] relates to Staphylococcus aureus. Briefly: Antibacterial activity against methicillin resistant Staphylococcus aureus USA300. It counts as functional.
The test system of assay [4] is Acinetobacter baumannii. Briefly: Antibacterial activity against Acinetobacter baumannii ATCC 19606. It counts as functional.
Assay [5] deals with Salmonella typhimurium. The assay is described as follows: Antibacterial activity against Salmonella typhimurium ATCC 14028. In kind it is functional, Salmonella enterica subsp. enterica serovar Typhimurium. The note with it: Salmonella enterica.
Assay [6] relates to Salmonella typhimurium. Briefly: Antibacterial activity against efflux deficient Salmonella typhimurium 14028 deltatolC1::kan. It counts as functional, Salmonella enterica subsp. enterica serovar Typhimurium. The conditions noted are these: Salmonella enterica.
Assay [7] has as its target DNA gyrase (Staphylococcus aureus, UniProt P0A0K8+P20831). The assay is described as follows: Inhibition of Staphylococcus aureus DNA gyrase using relaxed pBR322 DNA as substrate incubated for 30 mins by ethidium bromide staining based agarose gel electrophoresis method. It counts as protein-complex assay.
Assay [8] has as its target Topoisomerase IV (Staphylococcus aureus, UniProt P0C1S7+P0C1U9). Briefly: Inhibition of Staphylococcus aureus topoisomerase-IV assessed as reduction in decatenation using kinetoplast DNA as substrate incubated for 20 mins by ethidium bromide staining based agarose gel electrophoresis method. It counts as protein-complex assay.
The target of assay [9] is DNA gyrase (Escherichia coli, UniProt P0AES4+P0AES6). Briefly: Inhibition of Escherichia coli DNA gyrase using relaxed pBR322 DNA as substrate incubated at 37 degreeC for 30 to 45 mins followed by incubation at 75 degreeC for 10 mins by ethidium bromide staining based agarose gel electrophoresis method. It counts as protein-complex assay.
The target in assay [10] is T1, Topoisomerase IV (Staphylococcus aureus) (UniProt P0C1U9+P0C1S7). The assay is described as follows: Inhibition of Staphylococcus aureus DNA topoisomerase IV assessed as accumulation of single strand breaks incubated at 37 degreeC for 30 mins followed by incubation at 45 degreeC for 30 mins by ethidium bromide based agarose gel electrophoresis. It counts as protein-complex assay. The conditions noted are these: time 60.0 min.

Assay [11] concerns the target T1, Topoisomerase IV (Staphylococcus aureus). Briefly: Inhibition of Staphylococcus aureus DNA topoisomerase IV assessed as accumulation of double strand breaks incubated at 37 degreeC for 30 mins followed by incubation at 45 degreeC for 30 mins by ethidium bromide based agarose gel electrophoresis. In kind it is protein-complex assay. The note with it: time 60.0 min.

The subject of assay [12] is Escherichia coli. The assay is described as follows: Antibacterial activity against Escherichia coli ATCC 25922. In kind it is functional.
In assay [13] the target is DNA gyrase (Staphylococcus aureus) (UniProt P0A0K8+P20831). The assay is described as follows: Inhibition of Staphylococcus aureus DNA gyrase assessed as accumulation of single strand breaks at 10 uM incubated at 37 degreeC for 30 mins followed by incubation at 45 degreeC for 30 mins by ethidium bromide based agarose gel electrophoresis. It counts as protein-complex assay. The note with it: time 60.0 min.

≈ marks a conversion by molar mass, not a printed value. Calls of active or inactive are those of the source. The rule behind the calls is not given here.

Data on 26 compounds can be found in ChEMBL document CHEMBL5579862, “Development of Novel Bacterial Topoisomerase Inhibitors Assisted by Computational Screening” (ACS Med Chem Lett, 2024).

In general, MIC refers to the least concentration at which growth counts as inhibited. High values mean a less susceptible organism, low ones a more susceptible organism. The IC50 is the midpoint of a concentration-inhibition curve. Usually inhibition stands for the relative decrease from the control value, in per cent.

As for `COc1ccc2ncc(F)c(CCN3CCC(/C=C/c4ccc5c(c4)NC(=O)CO5)CC3)c2n1`, the MIC in [1] was 0.5 µg/mL (≈ 1.08 µM); in assay [2], 16 µg/mL (≈ 34.6 µM); in [3] it was at most 0.25 µg/mL; in assay [4] it was 8 µg/mL (≈ 17.3 µM); in assay [5], 16 µg/mL (≈ 34.6 µM); in assay [6] it was 0.25 µg/mL (≈ 0.541 µM).

Turning to `COc1ccc2ncc(F)c(CCN3CCC(C(O)Cc4ccc(C)cc4)CC3)c2n1` (stereo not drawn), the values for the MIC in assay [2], in assay [3] and in assay [6] were 8 µg/mL (≈ 18.9 µM), 0.25 µg/mL (≈ 0.59 µM) and 1 µg/mL (≈ 2.36 µM), respectively. Also, the values for the IC50 in assay [7], in [8] and in [9] were 0.24 µM, 2.29 µM and 12.4 µM, respectively. For the same compound, the inhibition entry in assay [10] was “Active”. Moreover, the inhibition in assay [11] was under 1%.

For `COc1ccc2ncc(F)c(CCN3CCC([C@@H](O)[C@@H](O)c4ccc(C)cc4)CC3)c2n1`, the minimal inhibitory concentration (MIC) in assay [1] amounted to 0.13 µg/mL (≈ 0.296 µM); in [3] it was 0.25 µg/mL (≈ 0.569 µM).

For `COc1ccc2ncc(F)c(CCN3CCC(CCc4ccc(C)cc4)CC3)c2n1`, the MIC in [2] was 4 µg/mL (≈ 9.82 µM); in assay [5], at least 64 µg/mL.

In the case of `COc1ccc2ncc(F)c(CCN3CCC(/C=C\c4ccc5c(c4)OCCO5)CC3)c2n1`, the MIC was 8 µg/mL (≈ 17.8 µM) in [1]; at least 16 µg/mL in [2]; 8 µg/mL (≈ 17.8 µM) in [3]; at least 64 µg/mL in assay [12]; 64 µg/mL (≈ 142 µM) in [4]; at least 64 µg/mL in assay [5]. The same compound registered an MIC in [6] of 4 µg/mL (≈ 8.9 µM).

With `COc1ccc2ncc(F)c(CCN3CCC(/C=C\c4ccc5c(c4)NC(=O)CO5)CC3)c2n1`, the MIC in assay [1] is at least 64 µg/mL; in assay [2] it was at least 64 µg/mL; in assay [4], 32 µg/mL (≈ 69.2 µM); in [6], 16 µg/mL (≈ 34.6 µM).

As to `COc1ccc2ncc(F)c(CCN3CCC(C(O)Cc4ccc5c(c4)OCCO5)CC3)c2n1` (stereo not drawn), in [2], the MIC is 4 µg/mL (≈ 8.56 µM).

As for `COc1ccc2ncc(F)c(CCN3CCC(/C=C/c4ccc(C)cc4)CC3)c2n1`, the MIC was 0.25 µg/mL (≈ 0.616 µM) in [1], at least 32 µg/mL in assay [2], at least 64 µg/mL in assay [5] and 0.5 µg/mL (≈ 1.23 µM) in [6].

As to `O=c1ccc2ncc(=O)n3c2n1C[C@H]3CN1CCC(NCc2cc3c(cn2)OCCC3)CC1` [GEPOTIDACIN], the MIC in assay [2] was 8 µg/mL (≈ 17.8 µM); in assay [12], 1 µg/mL (≈ 2.23 µM); in assay [4] it was 8 µg/mL (≈ 17.8 µM); in assay [5], 2 µg/mL (≈ 4.46 µM); in assay [6], 0.125 µg/mL (≈ 0.279 µM).

As for `COc1ccc2ncc(F)c(CCN3CCC([C@@H](O)[C@H](O)c4ccc5c(c4)NC(=O)CO5)CC3)c2n1`, the MIC in assay [2] was at least 32 µg/mL.

Consider `COc1ccc2ncc(F)c(CCN3CCC(C(O)Cc4ccc5c(c4)OCC(=O)N5)CC3)c2n1` (stereo not drawn), for which, in assay [6], 0.125 µg/mL (≈ 0.26 µM) was the least that counted as inhibitory (MIC).

As to `COc1ccc2ncc(F)c(CCN3CCC(C(N)Cc4ccc5c(c4)OCCO5)CC3)c2n1` (stereo not drawn), the minimal inhibitory concentration (MIC) in assay [2] is at least 16 µg/mL.

`COc1ccc2ncc(F)c(CCN3CCC([C@@H](O)[C@H](O)c4ccc5c(c4)OCCO5)CC3)c2n1` showed a minimal inhibitory concentration (MIC) in assay [3] of 1 µg/mL (≈ 2.07 µM).

For the compound `COc1ccc2ncc(F)c(CCN3CCC([C@@H](O)[C@H](O)c4ccc(C)cc4)CC3)c2n1`, the results for the MIC in assay [3] and in assay [6] were 2 µg/mL (≈ 4.55 µM) and 0.5 µg/mL (≈ 1.14 µM), respectively.

As for `COc1ccc2ncc(F)c(CCN3CCC(C(=O)Cc4ccc5c(c4)OCCO5)CC3)c2n1`, the minimal inhibitory concentration (MIC) was 4 µg/mL (≈ 8.59 µM) in [1]; 32 µg/mL (≈ 68.7 µM) in [2]; 4 µg/mL (≈ 8.59 µM) in assay [3]; 64 µg/mL (≈ 137 µM) in [12]; 64 µg/mL (≈ 137 µM) in assay [4]; at least 1 µg/mL in assay [6].

As for `COc1ccc2ncc(F)c(CCN3CCC([C@H](O)[C@H](O)c4ccc5c(c4)OCCO5)CC3)c2n1`, in assay [1], the MIC was at most 0.13 µg/mL.

`COc1ccc2ncc(F)c(CCN3CCC([C@H](O)[C@H](O)c4ccc(C)cc4)CC3)c2n1`: the MIC in assay [3] is 0.13 µg/mL (≈ 0.296 µM). Also, the IC50 in assay [7] stood at 0.065 µM; in assay [8] it was 3.31 µM; in assay [9], 17.1 µM. The inhibition result in assay [10] is “Active”. For the same compound, in [11], the inhibition is under 1%.

On to `COc1ccc2ncc(F)c(CCN3CCC(NCc4ccc(C)cc4)CC3)c2n1`, for which the MIC in assay [1] was at most 0.25 µg/mL; in assay [2] it was 16 µg/mL (≈ 39.2 µM); in assay [3], at most 0.25 µg/mL; in assay [12], 4 µg/mL (≈ 9.79 µM); in assay [4], 4 µg/mL (≈ 9.79 µM); in [5], 32 µg/mL (≈ 78.3 µM). The compound further yielded an MIC in assay [6] of 0.5 µg/mL (≈ 1.22 µM). Further, the figures for the IC50 in assay [7] and in assay [8] were 0.004 µM and 0.69 µM, respectively. The inhibition entry in [10] and in [13] was “Active” in each case. The inhibition in assay [11] was under 1%.

Take `COc1ccc2ncc(F)c(CCN3CCC(/C=C\c4ccc(C)cc4)CC3)c2n1`: the minimal inhibitory concentration (MIC) in assay [1] was determined as 4 µg/mL (≈ 9.86 µM); in [2], 32 µg/mL (≈ 78.9 µM); in assay [3], 4 µg/mL (≈ 9.86 µM); in assay [6], 8 µg/mL (≈ 19.7 µM).

For `COc1ccc2ncc(F)c(CCN3CCC([C@H](O)[C@@H](O)c4ccc5c(c4)NC(=O)CO5)CC3)c2n1`, the MIC in assay [6] was 0.25 µg/mL (≈ 0.503 µM).

`COc1ccc2ncc(F)c(CCN3CCC(C(=O)Cc4ccc5c(c4)NC(=O)CO5)CC3)c2n1`: the MIC in [1] is at most 0.13 µg/mL; in [12] it was 2 µg/mL (≈ 4.18 µM); in assay [4] it was 4 µg/mL (≈ 8.36 µM); in [5] it was 16 µg/mL (≈ 33.4 µM).

Compound `COc1ccc2ncc(F)c(CCN3CCC(C(N)Cc4ccc(C)cc4)CC3)c2n1` (stereo not drawn) showed an MIC in assay [2] of 32 µg/mL (≈ 75.7 µM). In addition, the IC50 in assay [7] was 5.05 µM; in [8] it was 82.6 µM; in assay [9], over 400 µM. The inhibition result in assay [10] and in [13] was “Active” throughout. The inhibition in [11] was under 1%.

Consider `COc1ccc2ncc(F)c(CCN3CCC(CCc4ccc5c(c4)OCCO5)CC3)c2n1`, for which the MIC in [2] turned out to be 8 µg/mL (≈ 17.7 µM); in assay [6], 0.25 µg/mL (≈ 0.554 µM).

In turn, `COc1ccc2ncc(F)c(CCN3CCC([C@@H](O)[C@@H](O)c4ccc5c(c4)OCCO5)CC3)c2n1` returned an MIC in [3] of 0.03 µg/mL (≈ 0.062 µM).

Regarding `COc1ccc2ncc(F)c(CCN3CCC([C@H](O)[C@@H](O)c4ccc(C)cc4)CC3)c2n1`, the values for the MIC in assay [3] and in assay [4] were 2 µg/mL (≈ 4.55 µM) and 32 µg/mL (≈ 72.8 µM), respectively.

With `COc1ccc2ncc(F)c(CCN3CCC(/C=C/c4ccc5c(c4)OCCO5)CC3)c2n1`, the MIC in [1] came out at 0.25 µg/mL (≈ 0.556 µM); in [2] it was 2 µg/mL (≈ 4.45 µM); in [3], 0.5 µg/mL (≈ 1.11 µM); in [12], 8 µg/mL (≈ 17.8 µM); in [4], 8 µg/mL (≈ 17.8 µM); in [5], 64 µg/mL (≈ 142 µM). In [6], the MIC came to 0.125 µg/mL (≈ 0.278 µM).
